Assay results reported in patent publication US20230040770A1, “HETEROCYCLIC COMPOUND AND USE THEREOF” (TAKEDA PHARMACEUTICAL COMPANY LIMITED, priority 2019, published 2023).

The molecules below were run against T1, human orexin type 2 receptor (Homo sapiens, UniProt O43614) (assay: Measurement of orexin type 2 receptor agonist activity (calcium indicator fluorescence, CHO cells forcibly expressing human OX2 receptor)). Details: compound at 3 μM; 0% = DMSO, 100% = orexin A (human) 10 nM.
T1 construct: expressed in transfected cells
T1 sequence (O43614 1-444): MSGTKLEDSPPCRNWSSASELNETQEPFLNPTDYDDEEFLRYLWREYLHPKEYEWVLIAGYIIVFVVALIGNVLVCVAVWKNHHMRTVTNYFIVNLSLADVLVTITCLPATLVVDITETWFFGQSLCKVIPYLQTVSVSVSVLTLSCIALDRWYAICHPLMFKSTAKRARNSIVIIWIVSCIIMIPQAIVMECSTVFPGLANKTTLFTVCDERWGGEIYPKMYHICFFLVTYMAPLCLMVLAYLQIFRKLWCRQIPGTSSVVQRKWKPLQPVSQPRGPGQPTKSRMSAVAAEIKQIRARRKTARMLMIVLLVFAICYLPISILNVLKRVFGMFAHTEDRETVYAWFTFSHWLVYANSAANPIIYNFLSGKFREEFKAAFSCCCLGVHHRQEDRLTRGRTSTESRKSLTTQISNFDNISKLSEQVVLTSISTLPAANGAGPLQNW
Type: cell-based
Method in brief: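 Agonist response normalised between vehicle (0%) and orexin A at 10 nM final (100%), from kinetic Fluo-4 calcium signals recorded for about 2 min after compound addition. Cells: stable human OX2R CHO clone, dye-loaded 30 min at 37 °C plus 30 min at room temperature.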

Compound	OX2R agonist activity (3 μM, %) [%]
CCS(=O)(=O)N[C@H]1[C@@H](F)CN(C(=O)N(C)C)[C@H]1Cc1cccc(-c2cccc(C)c2F)c1F [Example 408, (2S,3R,4S)-2-[(2,2′-difluoro-3′-methyl[1,1′-biphenyl]-3-yl)methyl]-3-[(ethanesulfonyl)amino]-4-fluoro-N,N-dimethylpyrrolidine-1-carboxamide]	88
CCS(=O)(=O)N[C@H]1[C@@H](F)CN(C(=O)N(C)C)[C@H]1Cc1cccc(-c2ccc(F)c(C)c2)c1F [Example 409, (2S,3R,4S)-2-[(2,4′-difluoro-3′-methyl[1,1′-biphenyl]-3-yl)methyl]-3-[(ethanesulfonyl)amino]-4-fluoro-N,N-dimethylpyrrolidine-1-carboxamide]	92
CCS(=O)(=O)N[C@H]1[C@@H](F)CN(C(=O)[C@H]2CCCO2)[C@H]1Cc1cccc(-c2ccccc2)c1F [Example 413, N-{(2S,3R,4S)-4-fluoro-2-[(2-fluoro[1,1′-biphenyl]-3-yl)methyl]-1-[(2R)-oxolane-2-carbonyl]pyrrolidin-3-yl}ethanesulfonamide]	99
CCS(=O)(=O)N[C@H]1[C@@H](F)CN(C(=O)[C@H]2CCCO2)[C@H]1Cc1cccc(-c2cc(F)cc(F)c2)c1F [Example 414, N-{(2S,3R,4S)-4-fluoro-1-[(2R)-oxolane-2-carbonyl]-2-[(2,3′,5′-trifluoro[1,1′-biphenyl]-3-yl)methyl]pyrrolidin-3-yl}ethanesulfonamide]	95
CCS(=O)(=O)N[C@H]1[C@@H](F)CN(C(=O)[C@H]2CCCO2)[C@H]1Cc1cccc(-c2cccc(F)c2F)c1F [Example 415, N-{(2S,3R,4S)-4-fluoro-1-[(2R)-oxolane-2-carbonyl]-2-[(2,2′,3′-trifluoro[1,1′-biphenyl]-3-yl)methyl]pyrrolidin-3-yl}ethanesulfonamide]	107
CCS(=O)(=O)N[C@H]1[C@@H](F)CN(C(=O)[C@H]2CCCO2)[C@H]1Cc1cccc(-c2cc(F)ccc2F)c1F [Example 416, N-{(2S,3R,4S)-4-fluoro-1-[(2R)-oxolane-2-carbonyl]-2-[(2,2′,5′-trifluoro[1,1′-biphenyl]-3-yl)methyl]pyrrolidin-3-yl}ethanesulfonamide]	101
CCS(=O)(=O)N[C@H]1[C@@H](F)CN(C(=O)C2CCO2)[C@H]1Cc1cccc(-c2cccc(Cl)c2)c1F (stereo partly drawn) [Example 422, N-[(2S,3R,4S)-2-[(3′-chloro-2-fluoro[1,1′-biphenyl]-3-yl)methyl]-4-fluoro-1-(oxetane-2-carbonyl)pyrrolidin-3-yl]ethanesulfonamide]	102
CCS(=O)(=O)N[C@H]1[C@@H](F)CN(C(=O)C2CCO2)[C@H]1Cc1cccc(-c2cccc(Cl)c2F)c1F (stereo partly drawn) [Example 423, N-[(2S,3R,4S)-2-[(3′-chloro-2,2′-difluoro[1,1′-biphenyl]-3-yl)methyl]-4-fluoro-1-(oxetane-2-carbonyl)pyrrolidin-3-yl]ethanesulfonamide]	90
O=C(N1CC(F)(F)[C@H](NS(=O)(=O)C2CC2)[C@@H]1Cc1cccc(-c2cccc(F)c2F)c1F)C1(O)CCC1 [Example 424, N-{(2S,3R)-4,4-difluoro-1-(1-hydroxycyclobutane-1-carbonyl)-2-[(2,2′,3′-trifluoro[1,1′-biphenyl]-3-yl)methyl]pyrrolidin-3-yl}cyclopropanesulfonamide]	95
Cc1cccc(-c2cccc(C[C@H]3[C@@H](NS(=O)(=O)C4CC4)C(F)(F)CN3C(=O)N(C)C)c2F)c1 [Example 425, (2S,3R)-3-[(cyclopropanesulfonyl)amino]-4,4-difluoro-2-[(2-fluoro-3′-methyl[1,1′-biphenyl]-3-yl)methyl]-N,N-dimethylpyrrolidine-1-carboxamide]	95
Cc1cccc(-c2cccc(C[C@H]3[C@@H](NS(=O)(=O)C4CC4)C(F)(F)CN3C(=O)N3CCC3)c2F)c1 [Example 426, N-{(2S,3R)-1-(azetidine-1-carbonyl)-4,4-difluoro-2-[(2-fluoro-3′-methyl[1,1′-biphenyl]-3-yl)methyl]pyrrolidin-3-yl}cyclopropanesulfonamide]	90
Cc1cccc(-c2cccc(C[C@H]3[C@@H](NS(=O)(=O)N(C)C)C(F)(F)CN3C(=O)C3(O)CCC3)c2F)c1 [Example 427, N′-[(2S,3R)-4,4-difluoro-2-[(2-fluoro-3′-methyl[1,1′-biphenyl]-3-yl)methyl]-1-(1-hydroxycyclobutane-1-carbonyl)pyrrolidin-3-yl]-N,N-dimethylsulfuric diamide]	99
Cc1cccc(-c2cccc(C[C@H]3[C@@H](NS(=O)(=O)C4CC4)C(F)(F)CN3C(=O)C3CCO3)c2F)c1 (stereo partly drawn) [Example 428, N-[(2S,3R)-4,4-difluoro-2-[(2-fluoro-3′-methyl[1,1′-biphenyl]-3-yl)methyl]-1-(oxetane-2-carbonyl)pyrrolidin-3-yl]cyclopropanesulfonamide]	100
Cc1cccc(-c2cccc(C[C@H]3[C@@H](NS(=O)(=O)C4CC4)C(F)(F)CN3C(=O)C3(O)CCC3)c2F)c1 [Example 430, N-[(2S,3R)-4,4-difluoro-2-[(2-fluoro-3′-methyl[1,1′-biphenyl]-3-yl)methyl]-1-(1-hydroxycyclobutane-1-carbonyl)pyrrolidin-3-yl]cyclopropanesulfonamide]	96
CS(=O)(=O)N[C@@H]1[C@H](Cc2cccc(-c3cc(F)cc(F)c3)c2F)N(C(=O)[C@H]2C[C@H](F)C2)CC1(F)F [Example 431, N-{(2S,3R)-4,4-difluoro-1-((1r,3S)-3-fluorocyclobutane-1-carbonyl)-2-[(2,3′,5′-trifluoro[1,1′-biphenyl]-3-yl)methyl]pyrrolidin-3-yl}methanesulfonamide]	106
Cc1cccc(-c2cccc(C[C@H]3[C@@H](NS(=O)(=O)N(C)C)C(F)(F)CN3C(=O)C3CCO3)c2F)c1 (stereo partly drawn) [Example 432, N′-[(2S,3R)-4,4-difluoro-2-[(2-fluoro-3′-methyl[1,1′-biphenyl]-3-yl)methyl]-1-(oxetane-2-carbonyl)pyrrolidin-3-yl]-N,N-dimethylsulfuric diamide]	95
Cc1cccc(-c2cccc(C[C@H]3[C@@H](NS(=O)(=O)N(C)C)C(F)(F)CN3C(=O)C3CCO3)c2F)c1 (stereo partly drawn) [Example 434, N′-[(2S,3R)-4,4-difluoro-2-[(2-fluoro-3′-methyl[1,1′-biphenyl]-3-yl)methyl]-1-(oxetane-2-carbonyl)pyrrolidin-3-yl]-N,N-dimethylsulfuric diamide]	101
CS(=O)(=O)N[C@@H]1[C@H](Cc2cccc(-c3cccc(F)c3F)c2F)N(C(=O)C2CC(F)C2)CC1(F)F (stereo partly drawn) [Example 435, N-{(2S,3R)-4,4-difluoro-1-(3-fluorocyclobutane-1-carbonyl)-2-[(2,2′,3′-trifluoro[1,1′-biphenyl]-3-yl)methyl]pyrrolidin-3-yl}methanesulfonamide]	88
CS(=O)(=O)N[C@@H]1[C@H](Cc2cccc(-c3cccc(F)c3F)c2F)N(C(=O)C2CC(F)C2)CC1(F)F (stereo partly drawn) [Example 436, N-{(2S,3R)-4,4-difluoro-1-(3-fluorocyclobutane-1-carbonyl)-2-[(2,2′,3′-trifluoro[1,1′-biphenyl]-3-yl)methyl]pyrrolidin-3-yl}methanesulfonamide]	92
CS(=O)(=O)N[C@@H]1[C@H](Cc2cccc(-c3cc(F)ccc3F)c2F)N(C(=O)C2CC(F)C2)CC1(F)F (stereo partly drawn) [Example 437, N-{(2S,3R)-4,4-difluoro-1-(3-fluorocyclobutane-1-carbonyl)-2-[(2,2′,5′-trifluoro[1,1′-biphenyl]-3-yl)methyl]pyrrolidin-3-yl}methanesulfonamide]	84
CN(C)S(=O)(=O)N[C@@H]1[C@H](Cc2cccc(-c3cccc(F)c3F)c2F)N(C(=O)C2(O)CCC2)CC1(F)F [Example 438, N′-{(2S,3R)-4,4-difluroo-1-(1-hydroxycyclobutane-1-carbonyl)-2-[(2,2′,3′-trifluoro[1,1′-biphenyl]-3-yl)methyl]pyrrolidin-3-yl}-N,N-dimethylsulfuric diamide]	95
CS(=O)(=O)N[C@@H]1[C@H](Cc2cccc(-c3cc(F)ccc3F)c2F)N(C(=O)C2CC(F)C2)CC1(F)F (stereo partly drawn) [Example 439, N-{(2S,3R)-4,4-difluoro-1-(3-fluorocyclobutane-1-carbonyl)-2-[(2,2′,5′-trifluoro[1,1′-biphenyl]-3-yl)methyl]pyrrolidin-3-yl}methanesulfonamide]	93
CS(=O)(=O)N[C@@H]1[C@H](Cc2cccc(-c3ccccc3)c2F)N(C(=O)C2CC(F)C2)CC1(F)F (stereo partly drawn) [Example 440, N-[(2S,3R)-4,4-difluoro-2-[(2-fluoro[1,1′-biphenyl]-3-yl)methyl]-1-(3-fluorocyclobutane-1-carbonyl)pyrrolidin-3-yl]methanesulfonamide]	94
CS(=O)(=O)N[C@@H]1[C@H](Cc2cccc(-c3ccccc3)c2F)N(C(=O)C2CC(F)C2)CC1(F)F (stereo partly drawn) [Example 441, N-[(2S,3R)-4,4-difluoro-2-[(2-fluoro[1,1′-biphenyl]-3-yl)methyl]-1-(3-fluorocyclobutane-1-carbonyl)pyrrolidin-3-yl]methanesulfonamide]	93
